# Laboratory results taken from US7109192B2, “Substituted imidazo-pyridinones and imidazo-pyridazinones, the preparation thereof and their use as pharmaceutical compositions” (Boehringer Ingelheim Pharma GmbH & Co KG, priority 2002, dated 2006).
# Where a name gives a salt, the structure may show the parent alone.
# Assays:
# rats = test: Tolerability in rats after oral administration; type: in vivo, rat; settings: 10 mg/kg
# DPP-IV = molecular target: T1, DPP-IV (Homo sapiens, UniProt P27487); test: DPP-IV inhibition assay with Caco-2 cell extract, AFC substrate, fluorescence; type: biochemical; settings: extract of human colon carcinoma cell line Caco-2 as DPP IV source; 100 μM AFC substrate; 60 minutes, ambient temperature
# T1 construct: an extract of human colon carcinoma cell line Caco-2 is used as the DPP IV source; endogenous in cells; host or cells: Caco-2 (human colon carcinoma), differentiated to induce DPP-IV expression; Nonidet-P40 solubilised extract
# Method: The cell extract was obtained from cells solubilised in a buffer (10 mM Tris HCl, 0.15 M NaCl, 0.04 t.i.u. aprotinin, 0.5% Nonidet-P40, pH 8.0) by centrifuging at 35,000 g for 30 minutes at 4° C. (to remove cell debris).
# The DPP-IV assay was carried out as follows:
# 50 μl substrate solution (AFC; AFC is amido-4-trifluoromethylcoumarin), final concentration 100 μM, were placed in black microtitre plates. 20 μl of assay buffer (final concentrations 50 mM Tris HCl pH 7.8, 50 mM NaCl, 1% DMSO) was pipetted in. The reaction was started by adding 30 μl of solubilised Caco-2 protein (final concentration 0.14 μg of protein per well). The test substances to be investigated were typically added prediluted in 20 μl, and the volume of assay buffer was then reduced accordingly. The reaction was carried out at ambient temperature, incubating for 60 minutes. […] Blank readings (corresponding to 0% activity) were obtained in mixtures without any Caco-2 protein (volume replaced by assay buffer), control values (corresponding to 100% activity) were obtained in mixtures with no substance added.
# T1 sequence (P27487 whole entry): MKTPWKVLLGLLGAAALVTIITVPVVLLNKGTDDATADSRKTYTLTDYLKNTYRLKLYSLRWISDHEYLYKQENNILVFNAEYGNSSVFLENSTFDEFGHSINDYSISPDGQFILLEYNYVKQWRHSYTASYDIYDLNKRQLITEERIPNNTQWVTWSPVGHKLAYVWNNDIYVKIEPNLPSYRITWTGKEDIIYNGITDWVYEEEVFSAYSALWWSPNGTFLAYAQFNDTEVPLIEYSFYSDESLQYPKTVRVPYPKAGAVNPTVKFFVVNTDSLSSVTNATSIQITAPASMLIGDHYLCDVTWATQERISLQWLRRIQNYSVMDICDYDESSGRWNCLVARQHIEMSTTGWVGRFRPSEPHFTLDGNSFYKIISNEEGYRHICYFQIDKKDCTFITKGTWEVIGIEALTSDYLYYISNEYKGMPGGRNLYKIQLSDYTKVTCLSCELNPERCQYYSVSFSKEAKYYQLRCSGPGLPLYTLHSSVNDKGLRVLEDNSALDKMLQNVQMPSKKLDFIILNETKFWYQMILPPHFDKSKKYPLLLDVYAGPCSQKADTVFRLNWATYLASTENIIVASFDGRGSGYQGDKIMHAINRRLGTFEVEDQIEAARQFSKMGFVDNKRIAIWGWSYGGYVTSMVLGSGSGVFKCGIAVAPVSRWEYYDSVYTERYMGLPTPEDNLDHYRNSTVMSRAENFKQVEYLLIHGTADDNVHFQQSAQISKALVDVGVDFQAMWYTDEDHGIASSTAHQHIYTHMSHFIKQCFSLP
Structure (SMILES),IC50 (DPP-IV) [nM],changes in the animals' behaviour (rats)
"CC#CCn1c(N2CCCC(N)C2)nc2cnn(Cc3cccc4ccccc34)c(=O)c21 (stereo not shown) [Example 2, 2-(3-amino-piperidin-1-yl)-3-(but-2-ynyl)-5-(naphthalen-1-ylmethyl)-3,5-dihydro-imidazo[4,5-d]pyridazin-4-one]",,no changes in the animals' behaviour could be detected
"Cc1cc2ccccc2c(Cn2ncc3nc(N4CCC[C@@H](N)C4)n(Cc4ccccc4Cl)c3c2=O)n1 [Example 205, 2-((R)-3-amino-piperidin-1-yl)-3-(2-chlorobenzyl)-5-(3-methyl-isoquinolin-1-ylmethyl)-3,5-dihydro-imidazo[4,5-d]pyridazin-4-one]",5.4,
"CC#CCn1c(N2CCC[C@@H](N)C2)nc2cnn(Cc3cn(C)c(=O)c4ccccc34)c(=O)c21 [Example 217, 2-((R)-3-amino-piperidin-1-yl)-3-(but-2-ynyl)-5-(2-methyl-2H-isoquinolin-1-on-4-ylmethyl)-3,5-dihydro-imidazo[4,5-d]pyridazin-4-one]",10,

# The remaining compounds from weak to strong by IC50 (DPP-IV), led by results:
IC50 (DPP-IV) [nM],Structure (SMILES),changes in the animals' behaviour (rats)
17,"CC#CCn1c(N2CCC[C@@H](N)C2)nc2cnn(Cc3nc4cc(C(F)(F)F)ccc4s3)c(=O)c21 [Example 195, 2-((R)-3-amino-piperidin-1-yl)-3-(but-2-ynyl)-5-(5-trifluoromethylbenzothiazol-2-ylmethyl)-3,5-dihydro-imidazo[4,5-d]pyridazin-4-one hydrochloride]",
14,"CC#CCn1c(N2CCC[C@@H](N)C2)nc2cnn(Cc3ccc(F)c4ccccc34)c(=O)c21 [Example 191, 2-((R)-3-amino-piperidin-1-yl)-3-(but-2-ynyl)-5-(4-fluoronaphthalen-1-ylmethyl)-3,5-dihydro-imidazo[4,5-d]pyridazin-4-one hydrochloride]",
9.8,"CC#CCn1c(N2CCC[C@@H](N)C2)nc2cnn(Cc3ccc4nonc4c3)c(=O)c21 [Example 202, 2-((R)-3-amino-piperidin-1-yl)-3-(but-2-ynyl)-5-(benzo[1,2,5]oxadiazol-5-ylmethyl)-3,5-dihydro-imidazo[4,5-d]pyridazin-4-one]",
1.2,"CC#CCn1c(N2CCCC(N)C2)nc2cnn(Cc3ccc4nccnc4c3)c(=O)c21 (stereo not shown) [Example 182, 2-(3-amino-piperidin-1-yl)-3-(but-2-ynyl)-5-(quinoxalin-6-ylmethyl)-3,5-dihydro-imidazo[4,5-d]pyridazin-4-one]",
